In patent US7071226B1, “Amino-functionalized 1,2,4-trioxanes useful as antimalarial agents and process for preparation thereof” (Council of Scientific and Industrial Research, priority 2004, dated 2006):
Like-named read-outs stand apart in the source and are kept apart here. Blank lines part the entries; values can stand above or below the compound they belong to.

How the values were obtained:
[1] = system: multidrug resistant strain of Plasmodium yoelii Nigeriensis; experiment: Antimalarial activity against multidrug resistant P. yoelii in Swiss mice (4-day treatment, observed till day 28); format: in vivo; details: Swiss mice; for inhibition in vivo at 48 mg/kg/day / inhibition in vivo at 96 mg/kg/day / inhibition in vivo at 24 mg/kg/day: 96 h, read-out: % Suppression on Day 4; for inhibition in vivo at 48 mg/kg/day / inhibition in vivo at 96 mg/kg/day / inhibition in vivo at 24 mg/kg/day / % Suppression on Day 4: day 0-3, in groundnut oil
Procedure: The antimalarial activity of the test compounds was evaluated in rodent using multidrug resistant strain of Plasmodium yoelii Nigeriensis in Swiss mice.
Random bred Swiss mice of either sex (20±2 gm) were inoculated intraperitoneally with 1×10^5 P. yoelii (MDR) parasites on day zero. Treatments with test compounds were administered to group of 5 mice each at different dose levels ranging between 12–96 mg/kg/day. Treatment was administered in groundnut oil intramuscularly and orally for 4 consecutive days (day 0–3). Blood smears from experimental mice were observed on day 4 and 7, day 10 and thereafter at regular intervals till day 28 or death of animal. Parasitaemia level on day 4 was compared with vehicle control group and percent suppression of parasitaemia in treated groups was calculated. […] The dose at which no parasitaemia develop during the observation period was reported as curative dose.

[2] = Plasmodium yoelii, po, 48 mg/kg/day, oral
[3] = Plasmodium yoelii, po, 672 h, 48 mg/kg/day, oral, day 0-3, read-out: Mice alive on day-28 (converted)
[4] = Plasmodium yoelii, po, 672 h, oral, day 0-3, read-out: Mice alive on day-28 (converted)
[5] = Plasmodium yoelii, po, 24 mg/kg/day, oral
[6] = 24 mg/kg/day, oral, day 0-3, 24 mg/kg/day
[7] = 48 mg/kg/day, oral, day 0-3, 48 mg/kg/day
[8] = 24 mg/kg/day, oral, 24 mg/kg/day
[9] = Plasmodium yoelii, im, 672 h, im, day 0-3, read-out: Mice alive on day-28 (converted)

- melting point: 130 to 132 °C
Structure (SMILES): C=C(c1ccccc1)C1COC2(CCC(Nc3ccc(F)cc3)CC2)OO1 (stereo not shown)

- melting point: 166 to 168 °C
Structure (SMILES): C=C(c1ccc(Cl)cc1)C1COC2(CCC(Nc3ccc4c(c3)-c3ccccc3C4)CC2)OO1 (stereo not shown)

- melting point: 123 to 124 °C
Structure (SMILES): C=C(c1ccc(OC)cc1)C1COC2(CCC(Nc3ccc(OC)cc3)CC2)OO1 (stereo not shown)

Structure (SMILES): C=C(c1ccc(OC)cc1)C1COC2(CCC(Nc3cccc4ccccc34)CC2)OO1 (stereo not shown) [Compound 4df, {3-[1-(4-Methoxy-phenyl)-vinyl]-1,2,5-trioxa-spiro[5.5]undec-9-yl}-naphthalen-1-yl-amine]
- inhibition in vivo at 48 mg/kg/day [1, 2]: 100%
- inhibition in vivo at 96 mg/kg/day ([1]; Plasmodium yoelii, po, oral): 100%
- responders at 48 mg/kg/day [1, 3]: 40%
- responders at 96 mg/kg/day [1, 4]: 100%

Structure (SMILES): C=C(c1ccc(OC)cc1)C1COC2(CCC(Nc3ccccc3-c3ccccc3)CC2)OO1 (stereo not shown) [Compound 4dg, Biphenyl-2-yl-{3-[1-(4-methoxy-phenyl)-vinyl]-1,2,5-trioxa-spiro[5.5]undec-9-yl}-amine]
- inhibition in vivo at 24 mg/kg/day [1, 5]: 91%
- inhibition in vivo at 48 mg/kg/day [1, 2]: 100%
- Mice alive on day-28 [1, 6]: 1/5
- Mice alive on day-28 [1, 7]: 3/5

Structure (SMILES): C=C(c1ccc(OC)cc1)C1COC2(CCC(Nc3ccccc3-c3ccccc3)CC2)OO1 (stereo not shown) [Compound 4dh, Biphenyl-2-yl-{3-[1-(4-methoxy-phenyl)-vinyl]-1,2,5-trioxa-spiro[5.5]undec-9-yl}-amine]
- % Suppression on Day 4 [1, 8]: 100%
- Mice alive on day-28 [1, 6]: 5/5
- % Suppression on Day 4 ([1]; 48 mg/kg/day, oral): 100%
- Mice alive on day-28 [1, 7]: 5/5

Structure (SMILES): C=C(c1ccc(OC)cc1)C1COC2(CCC(Nc3cccc(C(F)(F)F)c3)CC2)OO1 (stereo not shown) [Compound 4dm, {3-[1-(4-Methoxy-Phenyl)-Vinyl]-1,2,5-Trioxa-Spiro[5.5]undec-9-yl}-(3-Trifluoromethyl-Phenyl)-Amine]
- inhibition in vivo at 96 mg/kg/day ([1]; Plasmodium yoelii, im, im): 100%
- responders at 96 mg/kg/day [1, 9]: 0%
- inhibition in vivo at 24 mg/kg/day [1, 5]: 100%
- inhibition in vivo at 48 mg/kg/day [1, 2]: 100%
- inhibition in vivo at 96 mg/kg/day ([1]; Plasmodium yoelii, po, oral): 100%
- responders at 24 mg/kg/day ([1]; Plasmodium yoelii, po, 672 h, 24 mg/kg/day, oral, day 0-3, read-out: Mice alive on day-28 (converted)): 100%
- responders at 48 mg/kg/day [1, 3]: 100%
- responders at 96 mg/kg/day [1, 4]: 100%

Structure (SMILES): C=C(c1ccc(C)cc1)C1COC2(CCC(Nc3ccccc3)CC2)OO1 (stereo not shown) [Compound 4ea, Phenyl-[3-(1-p-Tolyl-Vinyl)-1,2,5-Trioxa-Spiro[5.5]undec-9-yl]-Amine]
- inhibition in vivo at 96 mg/kg/day ([1]; Plasmodium yoelii, im, im): 96%
- responders at 96 mg/kg/day [1, 9]: 0%
- inhibition in vivo at 96 mg/kg/day ([1]; Plasmodium yoelii, po, oral): 100%
- responders at 96 mg/kg/day [1, 4]: 100%

Structure (SMILES): C=C(c1ccc(C)cc1)C1COC2(CCC(Nc3ccc(OC)cc3)CC2)OO1 (stereo not shown) [Compound 4eb, (4-Methoxy-Phenyl)-[3-(1-p-Tolyl-Vinyl)-1,2,5-Trioxa-Spiro[5.5]undec-9-yl]-Amine]
- inhibition in vivo at 96 mg/kg/day ([1]; Plasmodium yoelii, im, im): 93%
- responders at 96 mg/kg/day [1, 9]: 0%
- inhibition in vivo at 96 mg/kg/day ([1]; Plasmodium yoelii, po, oral): 100%
- responders at 96 mg/kg/day [1, 4]: 100%

Structure (SMILES): C=C(c1ccc(C)cc1)C1COC2(CCC(Nc3ccc(Cl)cc3)CC2)OO1 (stereo not shown) [Compound 4ec, (4-Chloro-Phenyl)-[3-(1-p-Tolyl-Vinyl)-1,2,5-Trioxa-Spiro[5.5]undec-9-yl]-Amine]
- inhibition in vivo at 96 mg/kg/day ([1]; Plasmodium yoelii, po, oral): 100%
- responders at 96 mg/kg/day [1, 4]: 100%

Structure (SMILES): C=C(c1ccc(C)cc1)C1COC2(CCC(Nc3cc(Cl)cc(Cl)c3)CC2)OO1 (stereo not shown) [Compound 4ed, (3,5-Dichloro-Phenyl)-[3-(1-Tolyl-Vinyl)-1,2,5-Trioxa-Spiro[5.5]undec-9-yl]-Amine]
- Mice alive on day-28 ([1]; 24 mg/kg/day, oral, day 0-3): 0/5
- % Suppression on Day 4 [1, 8]: 95%
- % Suppression on Day 4 ([1]; 48 mg/kg/day, oral): 100%
- Mice alive on day-28 [1, 7]: 4/5

Structure (SMILES): C=C(c1ccc(C)cc1)C1COC2(CCC(Nc3cc(Cl)cc(Cl)c3)CC2)OO1 (stereo not shown) [Compound 4ee, (3,5-Dichloro-Phenyl)-[3-(1-Tolyl-Vinyl)-1,2,5-Trioxa-Spiro[5.5]undec-9-yl]-Amine]
- Mice alive on day-28 ([1]; 24 mg/kg/day, oral, day 0-3): 0/5
- % Suppression on Day 4 [1, 8]: 81%
- % Suppression on Day 4 ([1]; 48 mg/kg/day, oral): 100%
- Mice alive on day-28 [1, 7]: 2/5

Structure (SMILES): C=C(c1ccc(C)cc1)C1COC2(CCC(Nc3cccc4ccccc34)CC2)OO1 (stereo not shown) [Compound 4eg, Naphthalen-1-yl-[3-(1-p-Tolyl-Vinyl)-1,2,5-Trioxa-Spiro[5.5]undec-9-yl]-Amine]
- inhibition in vivo at 96 mg/kg/day ([1]; Plasmodium yoelii, po, oral): 100%
- responders at 96 mg/kg/day [1, 4]: 100%

Structure (SMILES): C=C(c1ccc(C)cc1)C1COC2(CCC(Nc3ccc(-c4ccccc4)cc3)CC2)OO1 (stereo not shown) [Compound 4ej, Biphenyl-4-yl-[3-(1-p-tolyl-vinyl)-1,2,5-trioxa-spiro[5.5]undec-9-yl]-amine]
- inhibition in vivo at 96 mg/kg/day ([1]; Plasmodium yoelii, im, im): 69%
- responders at 96 mg/kg/day [1, 9]: 0%
- inhibition in vivo at 48 mg/kg/day [1, 2]: 100%
- inhibition in vivo at 96 mg/kg/day ([1]; Plasmodium yoelii, po, oral): 100%
- responders at 48 mg/kg/day [1, 3]: 40%
- responders at 96 mg/kg/day [1, 4]: 100%

Structure (SMILES): C=C(c1ccc(C)cc1)C1COC2(CCC(Nc3cccc(C(F)(F)F)c3)CC2)OO1 (stereo not shown) [Compound 4en, [3-(1-p-Tolyl-vinyl)-1,2,5-trioxa-spiro[5.5]undec-9-yl]-(3-trifluoromethyl-phenyl)-amine]
- inhibition in vivo at 96 mg/kg/day ([1]; Plasmodium yoelii, po, oral): 100%
- responders at 96 mg/kg/day [1, 4]: 60%

Structure (SMILES): CCO[C@H]1O[C@@H]2O[C@@]3(C)CC[C@H]4[C@H](C)CC[C@@H]([C@H]1C)[C@@]24OO3 [β-Arteether, reference compound]
- Mice alive on day-28 ([1]; 24 mg/kg/day, oral, day 0-3): 1/5
- % Suppression on Day 4 ([1]; 24 mg/kg/day, oral): 100%
- Mice alive on day-28 ([1]; 48 mg/kg/day, oral, day 0-3): 5/5
- % Suppression on Day 4 ([1]; 48 mg/kg/day, oral): 100%
